The structures appear in SMILES notation. Bounds are passed on as bounds.

The text below walks through data of patent publication US20250368649A1, “TETRAHYDROPYRIDOPYRIMIDINE PAN-KRAS INHIBITORS” (Mirati Therapeutics, Inc., priority 2022, published 2025).

One experiment has as its target KRas G12D (Homo sapiens, UniProt P01116, G12D). The experiment is described as follows: biochemical. The following applies: Binding to KRas (IC50 nM) G12D, TR-FRET displacement, KRas G12D. Background: Time-resolved FRET reads energy transfer from a long-lived donor to a nearby acceptor.
The next experiment deals with H460 cells. The experiment is described as follows: Inhibition of KRas-mediated phosphorylation of ERK (Cisbio HTRF pERK), H460 cells. Type of experiment: cell-based. The following applies: Homo sapiens, NCI-H460, 3 h, 3 hr compound incubation.
In another experiment the target is KRas G12A (Homo sapiens, UniProt P01116, G12A). Format: binding. Particulars: single point, 10 nM compound, read-out: Binding to KRas (% inhibition at 10 nM) G12A.
Chain of KRas G12A (P01116 1-169 isoform P01116-2 G12A): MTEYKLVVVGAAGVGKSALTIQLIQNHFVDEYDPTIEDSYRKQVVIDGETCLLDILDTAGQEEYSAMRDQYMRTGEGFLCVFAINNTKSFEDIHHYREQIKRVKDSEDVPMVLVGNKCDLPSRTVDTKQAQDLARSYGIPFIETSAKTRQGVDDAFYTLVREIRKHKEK
Another experiment has as its system H358 cells. Kind of experiment: Inhibition of KRas-mediated phosphorylation of ERK (Cisbio HTRF pERK), H358 cells. Format: cell-based. Particulars: Homo sapiens; for inhibition at 0.1 µM: NCI-H358, single point at 100 nM, 3 hrs compound incubation; for IC50: NCI-H358, 3 h, 3 hr compound incubation.
A further experiment has as its target KRas G12C (Homo sapiens, UniProt P01116, G12C). Type of experiment: binding. The following applies: for inhibition at 0.01 µM: single point, 10 nM compound, read-out: Binding to KRas (% inhibition at 10 nM) G12C; for IC50: TR-FRET displacement, read-out: Binding to KRas (IC50 nM) G12C.
Another experiment relates to A549 cells. Kind of experiment: Inhibition of KRas-mediated phosphorylation of ERK (Cisbio HTRF pERK), A549 cells. Type of experiment: cell-based. The following applies: Homo sapiens; for inhibition at 0.1 µM: single point at 100 nM, 3 hrs compound incubation; for IC50: A549, 3 h, 3 hr compound incubation.
Another experiment has as its system PSN1 cells. Kind of experiment: Inhibition of KRas-mediated phosphorylation of ERK (Cisbio HTRF pERK), PSN1 cells. Type of experiment: cell-based. The following applies: Homo sapiens, PSN1, 3 h. The method in brief:
(§1)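 Day 1: 6,000 cells/well plated, RPMI + 10% FBS.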

The subject of a further experiment is MKN1 cells. The experiment is described as follows: Inhibition of KRas-mediated phosphorylation of ERK (Cisbio HTRF pERK), MKN1 cells. The following applies: Homo sapiens. Type of experiment: cell-based. The method in brief: as §1
In another experiment the target is KRas G12V (Homo sapiens, UniProt P01116, G12V). The experiment is described as follows: biochemical. Particulars: Binding to KRas (IC50 nM) G12V, TR-FRET displacement, KRas G12V.
Chain of KRas G12V (P01116 1-169 isoform P01116-2 G12V): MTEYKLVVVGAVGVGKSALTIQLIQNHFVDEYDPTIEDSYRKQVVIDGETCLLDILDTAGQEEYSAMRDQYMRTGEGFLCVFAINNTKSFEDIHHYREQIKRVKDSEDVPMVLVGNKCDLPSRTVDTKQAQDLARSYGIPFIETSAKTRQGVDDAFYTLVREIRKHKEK
For a further experiment, the target named is KRas G12S (Homo sapiens, UniProt P01116, G12S). Format: binding. The following applies: for inhibition at 0.01 µM: single point, 10 nM compound, read-out: Binding to KRas (% inhibition at 10 nM) G12S; for IC50: TR-FRET displacement, read-out: Binding to KRas (IC50 nM) G12S.
Chain of KRas G12S (P01116 1-169 isoform P01116-2 G12S): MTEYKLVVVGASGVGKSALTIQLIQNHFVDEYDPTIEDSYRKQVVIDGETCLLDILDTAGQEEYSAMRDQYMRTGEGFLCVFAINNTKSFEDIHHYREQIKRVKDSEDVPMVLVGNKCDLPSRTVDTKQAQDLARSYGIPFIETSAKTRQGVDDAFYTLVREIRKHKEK
Another experiment concerns HCT116 cells. The experiment is described as follows: Inhibition of KRas-mediated phosphorylation of ERK (Cisbio HTRF pERK), HCT116 cells. Particulars: Homo sapiens, HCT-116, 3 h, 3 hr compound incubation. Format: cell-based.
A further experiment has as its target KRas WT (Homo sapiens, UniProt P01116). The experiment is described as follows: KRas binding assay (TR-FRET displacement), KRas WT. The following applies: for inhibition at 0.01 µM: single point, 10 nM compound; for IC50: TR-FRET displacement.
The next experiment deals with KRas Q61H (Homo sapiens, UniProt P01116, Q61H). The experiment is described as follows: KRas binding assay (TR-FRET displacement), KRas Q61H. Particulars: single point, 10 nM compound.
Chain of KRas Q61H (P01116 1-169 isoform P01116-2 Q61H): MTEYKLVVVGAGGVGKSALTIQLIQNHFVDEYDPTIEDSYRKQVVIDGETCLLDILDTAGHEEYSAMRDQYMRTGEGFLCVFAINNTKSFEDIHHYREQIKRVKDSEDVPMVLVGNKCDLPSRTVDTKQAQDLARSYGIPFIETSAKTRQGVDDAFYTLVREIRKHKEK
Another experiment addresses KRas G13D (Homo sapiens, UniProt P01116, G13D). Format: binding. The following applies: single point, 10 nM compound, read-out: Binding to KRas (% inhibition at 10 nM) G13D.
The target in another experiment is KRas G12R (Homo sapiens, UniProt P01116, G12R). Kind of experiment: biochemical. The following applies: Binding to KRas (IC50 nM) G12R, TR-FRET displacement, KRas G12R.
Chain of KRas G12R (P01116 1-169 isoform P01116-2 G12R): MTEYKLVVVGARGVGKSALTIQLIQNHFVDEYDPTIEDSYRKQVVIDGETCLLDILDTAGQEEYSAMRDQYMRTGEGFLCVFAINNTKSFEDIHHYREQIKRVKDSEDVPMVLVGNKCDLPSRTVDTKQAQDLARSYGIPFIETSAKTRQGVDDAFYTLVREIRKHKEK
For another experiment, the system named is H727 cells. The experiment is described as follows: Inhibition of KRas-mediated phosphorylation of ERK (Cisbio HTRF pERK), H727 cells. Format: cell-based. The following applies: Homo sapiens, NCI-H727, 3 h, 3 hr compound incubation.
The test system of another experiment is ASPC1 cells. The experiment is described as follows: Inhibition of KRas-mediated phosphorylation of ERK (Cisbio HTRF pERK), ASPC1 cells. Type of experiment: cell-based. Particulars: Homo sapiens, ASPC1, 3 h, AsPC-1 cells, 3 hr compound incubation.
The subject of another experiment is H2009 cells. The experiment is described as follows: Inhibition of KRas-mediated phosphorylation of ERK (Cisbio HTRF pERK), H2009 cells. Type of experiment: cell-based. The following applies: Homo sapiens, NCI-H2009, 3 hr compound incubation.
[1] abbreviates: 3 hour compound incubation, Cisbio pERK HTRF.
[2] abbreviates: MKN-1, 3 hour compound incubation, Cisbio pERK HTRF.
Setting [3] is: MKN-1, 3 hr compound incubation.

Chain of KRas WT (P01116 1-169 isoform P01116-2): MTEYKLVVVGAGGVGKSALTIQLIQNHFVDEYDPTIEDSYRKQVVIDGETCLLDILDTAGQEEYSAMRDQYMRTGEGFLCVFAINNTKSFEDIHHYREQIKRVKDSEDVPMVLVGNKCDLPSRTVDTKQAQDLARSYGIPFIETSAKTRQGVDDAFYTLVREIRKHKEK
Chain of KRas G12C (P01116 1-169 isoform P01116-2 G12C): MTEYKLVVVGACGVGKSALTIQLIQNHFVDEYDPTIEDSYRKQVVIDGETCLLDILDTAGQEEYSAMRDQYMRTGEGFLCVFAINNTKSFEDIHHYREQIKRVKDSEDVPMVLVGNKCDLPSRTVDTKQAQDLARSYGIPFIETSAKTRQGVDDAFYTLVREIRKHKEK
Chain of KRas G12D (P01116 1-169 isoform P01116-2 G12D): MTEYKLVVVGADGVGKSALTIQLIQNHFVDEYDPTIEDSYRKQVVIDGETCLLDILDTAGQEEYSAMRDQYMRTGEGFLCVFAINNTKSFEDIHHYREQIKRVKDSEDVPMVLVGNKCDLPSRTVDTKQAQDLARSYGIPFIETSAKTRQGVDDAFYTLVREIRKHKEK
Chain of KRas G13D (P01116 1-169 isoform P01116-2 G13D): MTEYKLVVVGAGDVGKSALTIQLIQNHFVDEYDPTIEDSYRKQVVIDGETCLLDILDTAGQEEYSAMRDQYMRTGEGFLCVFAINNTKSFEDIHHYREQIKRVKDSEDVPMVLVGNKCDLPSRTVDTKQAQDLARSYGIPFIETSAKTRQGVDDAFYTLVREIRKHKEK

In the case of `CCc1c(F)ccc2cc(O)cc(N3CCc4c(nc(OC[C@@]56CCCN5C[C@H](F)C6)nc4N4CCCn5nc6c(c5C4)CCCN6)C3)c12` [Example 392, 5-ethyl-6-fluoro-4-(2-(((2R,7aS)-2-fluorohexahydro-1H-pyrrolizin-7a-yl)methoxy)-4-(3,4,8,9-tetrahydro-1H-pyrido[2′,3′:3,4]pyrazolo[1,5-a][1,4]diazepin-6(2H,5H,7H)-yl)-5,6-dihydropyrido[3,4-d]pyrimidin-7(8H)-yl)naphthalen-2-ol], the IC50 (usually the concentration needed to halve the response being measured) was 3 nM on KRas G12D; 285 nM in the experiment on H460 cells (Cisbio pERK HTRF); greater than 10000 nM in the experiment on PSN1 cells (setting [1]); 111 nM with MKN1 cells (setting [2]); 2 nM at KRas G12V; 813 nM with HCT116 cells (Cisbio pERK HTRF). Also, the IC50 is less than 2 nM at KRas G12R, 136 nM with H727 cells (Cisbio pERK HTRF) and 72 nM with ASPC1 cells (Cisbio pERK HTRF). The inhibition (usually the relative decrease from the control value, in per cent) at 0.01 µM is 56% on KRas G12A; 78% on KRas G12C; 71% on KRas G12S; 55% at KRas WT; 54% at KRas Q61H; 50% on KRas G13D. Besides, the inhibition at 0.1 µM worked out at 47% in the experiment on H358 cells and 38% in the experiment on A549 cells.
With `CCc1c(F)ccc2cc(O)cc(N3CCc4c(nc(OC[C@@]56CCCN5C[C@H](F)C6)nc4N4CCCn5nc(NC)c(OC)c5C4)C3)c12` [Example 393, 5-ethyl-6-fluoro-4-(2-(((2R,7aS)-2-fluorohexahydro-1H-pyrrolizin-7a-yl)methoxy)-4-(3-methoxy-2-(methylamino)-7,8-dihydro-4H-pyrazolo[1,5-a][1,4]diazepin-5(6H)-yl)-5,6-dihydropyrido[3,4-d]pyrimidin-7(8H)-yl)naphthalen-2-ol], the IC50 at KRas G12D is 4 nM; with H460 cells (Cisbio pERK HTRF), 72 nM; in the experiment with PSN1 cells (setting [1]), greater than 10000 nM; in the experiment with MKN1 cells (setting [2]), 58.5 nM; on KRas G12V it was 5 nM; in the experiment on HCT116 cells (Cisbio pERK HTRF), 235 nM. In addition, the IC50 at KRas G12R amounted to 4 nM; in the experiment on H727 cells (Cisbio pERK HTRF), 201 nM; in the experiment with ASPC1 cells (Cisbio pERK HTRF), 59 nM. Further, the inhibition at 0.01 µM at KRas G12A was determined as 66%; on KRas G12C, 83%; on KRas G12S, 72%; on KRas WT, 60%; on KRas Q61H, 60%; on KRas G13D, 64%. Further, the inhibition at 0.1 µM was 83% in the experiment on H358 cells and 41% with A549 cells.
For `C[C@@]1(O)COCCN(c2nc(OC[C@@]34CCCN3C[C@H](F)C4)nc3c2CCN(c2ccc(F)c4sc(N)c(C#N)c24)C3)C1` [Example 710, 2-amino-7-fluoro-4-(2-(((2R,7aS)-2-fluorotetrahydro-1H-pyrrolizin-7a(5H)-yl)methoxy)-4-((S)-6-hydroxy-6-methyl-1,4-oxazepan-4-yl)-5,8-dihydropyrido[3,4-d]pyrimidin-7(6H)-yl)benzo[b]thiophene-3-carbonitrile], the IC50 is 57 nM on KRas G12D; 813 nM with H460 cells; 484 nM in the experiment on H358 cells; 48 nM at KRas G12C; 1210 nM in the experiment on A549 cells; greater than 10000 nM in the experiment with PSN1 cells (3 hr compound incubation). Moreover, the IC50 is 75.9 nM in the experiment with MKN1 cells (setting [3]); 60 nM at KRas G12V; 60 nM on KRas G12S; 1860 nM in the experiment with HCT116 cells; 52 nM on KRas WT; 1110 nM with H727 cells. Moreover, the results for the IC50 with ASPC1 cells and with H2009 cells were 626 nM and 221 nM, respectively.
In the case of `C[C@@]1(O)CCCN(c2nc(OC[C@@]34CCCN3C[C@H](F)C4)nc3c2CCN(c2ccc(F)c4sc(N)c(C#N)c24)C3)C1` [Example 711, 2-amino-7-fluoro-4-(2-(((2R,7aS)-2-fluorotetrahydro-1H-pyrrolizin-7a(5H)-yl)methoxy)-4-((R)-3-hydroxy-3-methylpiperidin-1-yl)-5,8-dihydropyrido[3,4-d]pyrimidin-7(6H)-yl)benzo[b]thiophene-3-carbonitrile], the 50% inhibitory concentration (IC50) on KRas G12D was 17 nM; in the experiment with H460 cells it was 2520 nM; in the experiment with H358 cells, 2680 nM; at KRas G12C, 19 nM; in the experiment on A549 cells, 4820 nM; with PSN1 cells (3 hr compound incubation), greater than 10000 nM. Moreover, the half-inhibitory concentration (IC50) came out at 830 nM in the experiment with MKN1 cells (setting [3]); 21 nM on KRas G12V; 13 nM at KRas G12S; 7220 nM in the experiment on HCT116 cells; 10 nM at KRas WT; 7410 nM in the experiment on H727 cells. Further, the IC50 in the experiment with ASPC1 cells turned out to be 1940 nM; with H2009 cells it was 424 nM.
As to `C=C1CN2CCCC2(COc2nc3c(c(N4CCCC5(CNS(=O)(=O)N5)C4)n2)CCN(c2cc(O)cc4ccc(F)c(CC)c24)C3)C1` (stereo not drawn) [Example 712, 7-(7-(8-ethyl-7-fluoro-3-hydroxynaphthalen-1-yl)-2-((2-methylenetetrahydro-1H-pyrrolizin-7a(5H)-yl)methoxy)-5,6,7,8-tetrahydropyrido[3,4-d]pyrimidin-4-yl)-2-thia-1,3,7-triazaspiro[4.5]decane 2,2-dioxide], the 50% inhibitory concentration (IC50) worked out at 3 nM at KRas G12D; 141 nM in the experiment with H460 cells; 30 nM in the experiment on H358 cells; 2 nM on KRas G12C; 216 nM in the experiment with A549 cells; 806 nM in the experiment on PSN1 cells (3 hr compound incubation). Also, the 50% inhibitory concentration (IC50) with MKN1 cells (setting [3]) is 1.4 nM; at KRas G12V, 3 nM; on KRas G12S, less than 2 nM; in the experiment on HCT116 cells it was 240 nM; on KRas WT it was 2 nM; in the experiment on H727 cells, 421 nM. In addition, the IC50 in the experiment with ASPC1 cells came to 70 nM; in the experiment on H2009 cells, 19 nM.
With `C=C1CN2CCCC2(COc2nc3c(c(N4CCCC5(CCO5)C4)n2)CCN(c2cc(O)cc4ccc(F)c(CC)c24)C3)C1` (stereo not drawn) [Example 713, 5-ethyl-6-fluoro-4-(2-((2-methylenetetrahydro-1H-pyrrolizin-7a(5H)-yl)methoxy)-4-(1-oxa-6-azaspiro[3.5]nonan-6-yl)-5,8-dihydropyrido[3,4-d]pyrimidin-7(6H)-yl)naphthalen-2-ol], the IC50 on KRas G12D is 2 nM; with H460 cells, 127 nM; in the experiment with H358 cells, 29 nM; on KRas G12C, less than 2 nM; in the experiment on A549 cells it was 92 nM; in the experiment with PSN1 cells (3 hr compound incubation), 1800 nM. Besides, the half-inhibitory concentration (IC50) with MKN1 cells (setting [3]) is 10.5 nM; on KRas G12V, less than 2 nM; on KRas G12S it was less than 2 nM; with HCT116 cells it was 253 nM; at KRas WT, less than 2 nM; in the experiment with H727 cells, 67 nM. Moreover, the 50% inhibitory concentration (IC50) with ASPC1 cells came to 51 nM; in the experiment with H2009 cells it was 17 nM.
